Data set [1] can be described thus: Intrinsic clearance with human hepatic microsomes. In kind it is in vitro ADME. The note with it: for metabolism with hepatic microsomes (in words): stated for hepatic microsomes from human, 8HUM and WT mice together. The procedure:
(§1) Microsomes from 8HUM were prepared as described previously. Compounds were added at 0.5 μM (metabolic stability) or 5 μM (metabolite profiling) to microsomes in buffer (0.5 mg/mL protein in 50 mM potassium phosphate, pH 7.4), and reactions were initiated with the addition of excess NADPH (final concentration 0.8 mg/mL). Aliquots (50 μL) were taken immediately and at 3, 6, 9, 15, and 30 min, mixed with two volumes of acetonitrile containing internal standard (donepezil, 50 ng/mL), and kept on ice. After all samples were collected, 250 μL of 20% acetonitrile was added to each sample and samples were then centrifuged for 10 min at 3000g at ambient temperature. LC–MS/MS analysis was carried out immediately.
(§2) Microsomal incubation samples were analyzed on an Acquity UPLC system coupled to a Xevo TQS-Micro, operated using MassLynx software version 4.2 (Waters, Wilmslow, UK). […] The mass spectrometer was operated with electrospray ionization in positive mode, with a capillary voltage of 0.8 kV, a desolvation temperature of 500 °C (in vitro samples) or 600 °C (PK samples), a desolvation gas flow at 1000 L/h, a cone gas flow at 150 L/h, and a source temperature at 150 °C. Multiple reaction monitoring transitions, cone voltages, and collision energies were optimized for each compound using QuanOptimise software.
Raw LC–MS/MS data were exported to XLfit (IDBS, Woking, UK) for calculation of the exponential decay rate constant (k) from the ratio of the peak area of the test compound to the internal standard at each time point. Intrinsic clearance (CLint) was calculated by multiplying k by the incubation volume and […]. […] Lower and upper limits of quantitation were 0.011 and 0.1 mL/min/mg, respectively. Values were transferred to RStudio (Posit, Boston, MA, USA) for visualization using the ggplot2 package.

A short description of data set [2]: Intrinsic clearance with 8HUM mouse hepatic microsomes. In kind it is in vitro ADME. As to the method:
as §1
(§3) Microsomal incubation samples were analyzed on an Acquity UPLC system coupled to a Xevo TQS-Micro, operated using MassLynx software version 4.2 (Waters, Wilmslow, UK). […]
(§4) Raw LC–MS/MS data were exported to XLfit (IDBS, Woking, UK) for calculation of the exponential decay rate constant (k) from the ratio of the peak area of the test compound to the internal standard at each time point. Intrinsic clearance (CLint) was calculated by multiplying k by the incubation volume and […]. […] Lower and upper limits of quantitation were 0.011 and 0.1 mL/min/mg, respectively. […]

Data set [3] in a line: Intrinsic clearance with WT mouse hepatic microsomes. Format: in vitro ADME. The note with it: WT mouse microsomes versus human or 8HUM. The procedure: as §1, §3, §4
Data set [4] can be described thus: Oral pharmacokinetics in whole blood of WT mice. In kind it is in vivo. The note with it: female, mouse; for Tmax: WT, po; for blood plasma ratio: WT mice, blood and plasma samples from same animals at identical timepoints, read-out: B/P (blood-to-plasma ratio). The procedure: (§5) Three female mice were used in each pharmacokinetic experiment. Dose levels and schedules were as described in the text. All compounds were administered as fine suspensions in a vehicle of 1% methylcellulose and 0.5% Tween80 in water at a dose volume of 5 mL/kg. Serial blood samples (10 μL) were taken from the tail vein at the time points shown, diluted into 9 volumes of Milli-Q water, and stored at −20 °C prior to bioanalysis. PK parameters were determined by noncompartmental analysis using the Phoenix WinNonlin version 8.3.1.5014 (Certara).
as §2
(§6) On the day of sample analysis, calibration standards (CSs) and quality controls (QCs) were prepared from separate compound aliquots. Compounds were dissolved in DMSO and spiked into diluted blank blood as a control matrix, prior to extraction with three volumes of acetonitrile containing the internal standard (donepezil at 5 ng/mL), in parallel with PK samples. Concentration of the drug in samples was determined by interpolation onto CS values using TargetLynx (Waters). Acceptance criteria of the bioanalytical method included a CS accuracy of ±20% of nominal (theoretical) concentration across the range of interest. […] QCs at low-, medium-, and high- concentration levels were injected throughout the analytical run, with an acceptance criterion of 66% of injected samples being within ±20% of nominal concentrations. […] Sample carryover was determined in a blank injection immediately following the injection of the top CS. Carryover was deemed accepted when the test compound response in the blank was <1% of that in the top calibration sample.

A short description of data set [5]: Oral pharmacokinetics in whole blood of 8HUM mice. Format: in vivo, mouse. The note with it: for Tmax / blood plasma ratio: female, mouse; for Tmax: 8HUM, po; for blood plasma ratio: blood and plasma samples from same animals at identical timepoints, read-out: B/P (blood-to-plasma ratio); for AUCinf higher in 8HUM than in WT mice: oral dose, 8HUM versus WT. The procedure:
as §5, §2, §6

The test system of a further data set is Plasmodium berghei. Kind of data set: Short course P. berghei infection efficacy in 8HUM mice. Format: in vivo, Plasmodium berghei ANKA in 8HUM mice. As to conditions: 8HUM infected with 0.3 × 10^6 P. berghei infected erythrocytes; single dose 7 mg/kg 24 h after infection; untreated approximately 10% after 5 days; n = 3. As to the method: Donor mice (CD-1) were intraperitoneally administered a solution containing cryopreserved erythrocytes infected with P. berghei ANKA (200 μL at approximately 4% parasitemia). […] Piperaquine (Sigma, C7874) was administered at 7 mg/kg in aqueous vehicle containing 1% (w/v) methylcellulose and 0.5% (w/v) Tween 80. Peripheral blood samples were collected daily, and parasitemia was determined as described.

[6] abbreviates: chloroquine and primaquine 5 mg/kg, quinine 20 mg/kg.

The record followed here is paper PMC12706778, “Humanization of Drug Metabolism in the Plasmodium berghei Mouse Model for Antimalarial Drug Discovery” (ACS Infectious Diseases, 2025).

Molecules are shown by their SMILES.

Regarding `CCN(CC)Cc1cc(Nc2ccnc3cc(Cl)ccc23)ccc1O` [Amodiaquine, amodiaquine], in data set [1], the “metabolism by human liver microsomes (in words)” value was “rapidly metabolized”. In addition, the “stability in 8HUM microsomes compared with human” value in data set [2] is given as “much more stable”.
Consider `CO[C@H]1O[C@@H]2O[C@@]3(C)CC[C@H]4[C@H](C)CC[C@@H]([C@H]1C)[C@@]24OO3` [Artemether, artemether], for which the “metabolism by human liver microsomes (in words)” value in data set [1] is given as “rapidly metabolized”.
The same measure, in the same setting: in the case of `C[C@H]1[C@H](OC(=O)CCC(=O)O)O[C@@H]2O[C@@]3(C)CC[C@H]4[C@H](C)CC[C@@H]1[C@@]24OO3` [Artesunate, artesunate] it was “rapidly metabolized”.
`O=C1C(O)=C([C@H]2CC[C@H](c3ccc(Cl)cc3)CC2)C(=O)c2ccccc21` [Atovaquone, atovaquone]: the “metabolism with hepatic microsomes (in words)” value in data set [1] was “Very little metabolism”.
For the compound `CCN(CC)CCCC(C)Nc1ccnc2cc(Cl)ccc12` (centres unmarked) [Chloroquine, chloroquine], in data set [3], the “stability with WT microsomes compared with human or 8HUM microsomes” value is given as “less stable”. The values for the Tmax in data set [4] (in vivo) and in data set [5] (in vivo) were 2 h and 3 ± 2.6 h, respectively. The blood plasma ratio is 3.03 ± 0.38 in data set [4] (in vivo) and 3.88 ± 1.64 in data set [5] (in vivo, 8HUM mice). In addition, the “AUCinf higher in 8HUM than in WT mice” value in data set [5] (setting [6]) is 2.8 fold.
Regarding `C[C@H]1c2cccc(O)c2C(=O)C2=C(O)[C@]3(O)C(=O)C(C(N)=O)=C(O)[C@@H](N(C)C)[C@@H]3[C@@H](O)[C@@H]21` [Doxycycline, doxycycline], the “metabolism with hepatic microsomes (in words)” value in data set [1] is “Very little metabolism”.
With `OC(c1cc(C(F)(F)F)nc2c(C(F)(F)F)cccc12)C1CCCCN1` (centres unmarked) [Mefloquine, mefloquine], the “metabolism with hepatic microsomes (in words)” value in data set [1] was “Very little metabolism”. Moreover, the Tmax worked out at 4.7 ± 1.2 h in data set [4] (whole blood) and 7.3 ± 1.2 h in data set [5] (whole blood). Moreover, the blood plasma ratio in data set [4] (whole blood and plasma, oral) was determined as 1.44 ± 0.07; in data set [5] (whole blood and plasma, oral, 8HUM mice), 1.41 ± 0.16.
In the case of `COc1cc(NC(C)CCCN)c2ncccc2c1` (centres unmarked) [Primaquine, primaquine], the “stability with WT microsomes compared with human or 8HUM microsomes” value in data set [3] is reported as “less stable”. In addition, the Tmax came to 0.6 ± 0.2 h in data set [4] (in vivo) and 0.8 ± 0.2 h in data set [5] (in vivo). The blood plasma ratio in data set [4] (in vivo) came to 1.05 ± 0.19; in data set [5] (in vivo, 8HUM mice) it was 1.01 ± 0.03. Besides, the C max in data set [5] (8HUM mice, whole blood, PO, chloroquine and primaquine 5 mg/kg, quinine 20 mg/kg, n = 3) was found to be 534 ± 37 ng/mL. Moreover, the “AUCinf higher in 8HUM than in WT mice” value in data set [5] (setting [6]) is 22 fold.
Turning to `[H]/N=C(\N/C(=N/[H])Nc1ccc(Cl)cc1)NC(C)C` [Proguanil, proguanil], the “metabolism with hepatic microsomes (in words)” value in data set [1] is on record as “Very little metabolism”.
With `CCc1nc(N)nc(N)c1-c1ccc(Cl)cc1` [Pyrimethamine, pyrimethamine], in data set [1], the “metabolism with hepatic microsomes (in words)” value is on record as “Very little metabolism”.
As for `C=C[C@H]1C[N@@]2CC[C@H]1C[C@H]2[C@H](O)c1ccnc2ccc(OC)cc12` [Quinine, quinine], the time to peak (Tmax) turned out to be 0.3 ± 0.1 h in data set [4] (whole blood) and 10.7 ± 11.7 h in data set [5] (whole blood).
Turning to `Clc1ccc2c(N3CCN(CCCN4CCN(c5ccnc6cc(Cl)ccc56)CC4)CC3)ccnc2c1` [piperaquine], the parasitemia after treatment entry with Plasmodium berghei is given as “almost undetectable levels”.

One may read the Tmax as the time at which the peak concentration occurs.
